“Also recorded” adds a separate entry of the source. Like-named read-outs stand apart in the source and are kept apart here.
Columns and labels:
Sm.5HTR [1] = biological target: T1, Sm.5HTR (Schistosoma mansoni, UniProt G4V5G4); assay: cell-based; type: cell-based; conditions: for activity at Sm.5HTR: antagonist/modulator screening; for GPCR inhibition profile compared with rotundine: Sm.5HTR vs Hs.5HT7R, Fig F in S1 Text
Experimental: (§1) HEK293 cells (ATCC CRL-1573.3) were cultured in DMEM supplemented with 10% fetal bovine serum (FBS), penicillin (100 units/ml), streptomycin (100 μg/ml), and L-glutamine (290 μg/ml). Cells were transiently transfected (ViaFect, Promega) as per the manufacturer’s protocol at a density of 2x10^6 cells per T-25 cell-culture flask. Cells were transfected with plasmids encoding GloSensor (Promega) and either Sm.5HTR (Smp_126730, GenBank accession number KF444051.1) or Sm.5HTRL (KX150867), bothGPCRs being codon optimized for mammalian expression, or Hs.5HT7a (GenBank accession number NM_000872.4, R&D Systems) subcloned into pCS2(-). Cell culture reagents were from Invitrogen. Epitope tagged constructs were used to verify expression, and untagged constructs used for all luminescence assays.
(§2) For assays performed on adherent cells, HEK-293 cells were transferred one day post transfection to 96 well, solid white plates (Corning, cat # 3917) coated with 0.01% poly-L-lysine (Sigma Aldrich) at a density of 5 x 10^4 cells / well in DMEM supplemented with 1% dialyzed FBS (Gibco). After overnight culture (37°C/5% CO2), media was decanted and replaced with 100μL / well HBSS supplemented with 0.1% BSA, 20mM HEPES (pH 7.4) and GloSensor reagent. Plates were allowed to equilibrate at room temperature for two hours prior to performing luminescence assays (GloMax-Multi Detection System plate reader, Promega). Conditions for individual assays were described as per figure legends. The standard assay to detect changes in cAMP utilized the F22 sensor in media supplemented with IBMX (200μM). Ligands were added at a concentration of 20x per well for experiments (i.e. 5μl of drug solution added to 100μl of cells). […] For the resazurin reduction assay for cellular viability, cells were incubated with resazurin (final concentration, 10μM) and tested ligands with fluorescence measurements (560 nm excitation/590 nm emission) made at 1.5hr intervals.

Hs.5HT7R = biological target: T2, Hs.5HT7R (Homo sapiens, UniProt P34969); assay: GloSensor cAMP assay in HEK293 cells expressing Hs.5HT7R; type: cell-based
T2 construct: host or cells: HEK293 (ATCC CRL-1573.3), transient transfection, pCS2(-) vector
T2 sequence (P34969 1-445 isoform P34969-2): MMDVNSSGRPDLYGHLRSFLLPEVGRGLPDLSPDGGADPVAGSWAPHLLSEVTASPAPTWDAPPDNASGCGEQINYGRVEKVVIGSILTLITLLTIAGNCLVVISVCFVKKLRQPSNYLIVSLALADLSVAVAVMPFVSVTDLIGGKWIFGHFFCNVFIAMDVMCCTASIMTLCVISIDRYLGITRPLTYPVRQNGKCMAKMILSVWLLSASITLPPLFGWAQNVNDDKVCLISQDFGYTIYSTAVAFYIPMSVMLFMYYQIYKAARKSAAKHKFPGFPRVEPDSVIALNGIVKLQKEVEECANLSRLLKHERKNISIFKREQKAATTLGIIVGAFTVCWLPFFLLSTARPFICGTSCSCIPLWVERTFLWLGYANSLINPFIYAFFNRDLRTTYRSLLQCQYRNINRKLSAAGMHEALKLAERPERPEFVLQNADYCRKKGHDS
Experimental: as §1, §2

adult schistosomes = assay: Adult schistosome mobility assay; type: in vivo, Schistosoma mansoni; conditions: 10μM
Experimental: Female Swiss Webster mice exposed to Schistosoma mansoni cerceria (Strain PR-1) at 5–7 weeks old were obtained from BEI Resources (Cat. number NR-34792) and sacrificed 6–8 weeks post-infection. Mature S. mansoni were harvested from the mesenteric vasculature by portal perfusion. Briefly, mice were anesthetized in a CO2 chamber and sacrificed by cervical dislocation. Mice were perfused with sodium citrate (25mM) and adult schistosomes were harvested from the mesenteric veins. Schistosomes were washed in RPMI media containing penicillin (1000 units/mL), streptomycin (1000 μg/mL) and 25mM HEPES, then transferred to RPMI media supplemented with 2mM glutamine and 5% heat inactivated FBS. Worms were incubated overnight at 37°C, 5% CO2 before conducting assays. Recordings of adult schistosome movement were captured using a Zeiss Discovery v20 stereomicroscope and a QiCAM 12-bit cooled color CCD camera. Videos were acquired at a rate of four frames per second for one minute. Recordings of female worms were acquired at 7.6x magnification, 30 mm field of view and recordings of male worms were acquired at a 5.1x magnification, 45 mm field of view. Analysis was performed in ImageJ as described previously. Briefly, image (.tiff) stacks of each recording were imported and processed by converting to binary format so that pixel measurements represent area of the worms’ bodies. Mobility was quantified by measuring the difference in pixels resulting from subtracting the value of one frame (n) from those of the next frame in the sequence (n+1). This difference was expressed as a percentage of the pixels in the initial frame (n), providing a measurement of the worms’ movement over a period of 0.25 seconds. This calculation was performed for each frame in the video, and the results were averaged over the length of the recording. Values reported represent the mean (±) standard error of at least three independent experiments. Animal work was carried out with the oversight and approval of the Laboratory Animal Resources facility at the Iowa State University College of Veterinary Medicine.

[2] = test system: S. mansoni schistosomules; assay: Schistosomule contractility assay; type: in vivo, Schistosoma mansoni; conditions: Schistosoma mansoni, read-out: IC50 (inhibition of 5-HT evoked contractions)
Experimental: Biomphalaria glabrata (M-line) snails exposed to Schistosoma mansoni miracidia (Strain PR-1) were obtained from BEI Resources (Cat. number NR-21961) and cercaria were shed following exposure to light (1.5 hours). Cercaria were manually transformed into schistosomula by vortexing (3 x 45 seconds, each separated by 3 minutes on ice) and tails were removed by gradient centrifugation (24ml Percoll, 4ml 10X EMEM, 1.5ml penicillin-streptomycin, 1ml of 1M HEPES in 0.85% NaCl, 9.5ml distilled water) at 500g/15min at 4°C. Supernatant containing tails was discarded, and schistosomules were resuspended in Basch media and incubated (37°C, 5% CO2) overnight before conducting mobility assays. For contractility experiments, somules were incubated in 5-HT free Basch media to resolve a basal contractility rate. […] Schistosomules were incubated in 24 well plates (~200 schistosomules / 0.5mL media per well) for 30 minutes (37°C/5% CO2) prior to acquiring videos of schistosome movement (1 minute recordings / well) using a Nikon Coolpix 5700 camera affixed to a Nikon Eclipse TS100 microscope (10x objective). The WrmTrck plugin for ImageJ was used to quantify worm mobility. Briefly, the major axis of each schistosomule body length was extracted from the raw output of WrmTrck and an average length was determined for the duration of the recording. Contractions were quantified by determining the number of episodes during which the worm body length deviated from the average by over 20%. S. mansoni protocols were approved by the Iowa State University Institutional Biosafety Committee.

Sm.5HTR [3] = biological target: T1, Sm.5HTR; assay: Antagonist washout (inactivating antagonist) GloSensor assay on suspension cells; type: cell-based; conditions: for inhibition of Sm.5HTR after antagonist wash-out: 10μM for 30 mins, washout, 5-HT response 1hr later
Experimental: To test putative irreversible antagonists, assays on suspension cells were performed one day post transfection. […] Compounds were added at 10 μM, and after 30 minute incubation at room temperature cells were centrifuged (300 RCF, 5 minutes) and resuspended in fresh media. This wash step was repeated, and cells were resuspended in HBSS supplemented with 0.1% BSA, 20mM HEPES and GloSensor reagent. Cells were gently rotated to prevent aggregation and settling over the course of the two hour equilibration period, after which time they were transferred to 96 well plates at a density of 8 x 10^4 cells / 100μL per well and assays described for adherent cells.

Sm.5HTRL = Sm.5HTRL (Schistosoma mansoni, UniProt A0A173FEI8); assay: GloSensor cAMP assay in HEK293 cells expressing Sm.5HTRL; type: cell-based; conditions: antagonists 10μM, 5-HT EC80 dose
Sm.5HTRL, sequence (A0A173FEI8 entry or part of it): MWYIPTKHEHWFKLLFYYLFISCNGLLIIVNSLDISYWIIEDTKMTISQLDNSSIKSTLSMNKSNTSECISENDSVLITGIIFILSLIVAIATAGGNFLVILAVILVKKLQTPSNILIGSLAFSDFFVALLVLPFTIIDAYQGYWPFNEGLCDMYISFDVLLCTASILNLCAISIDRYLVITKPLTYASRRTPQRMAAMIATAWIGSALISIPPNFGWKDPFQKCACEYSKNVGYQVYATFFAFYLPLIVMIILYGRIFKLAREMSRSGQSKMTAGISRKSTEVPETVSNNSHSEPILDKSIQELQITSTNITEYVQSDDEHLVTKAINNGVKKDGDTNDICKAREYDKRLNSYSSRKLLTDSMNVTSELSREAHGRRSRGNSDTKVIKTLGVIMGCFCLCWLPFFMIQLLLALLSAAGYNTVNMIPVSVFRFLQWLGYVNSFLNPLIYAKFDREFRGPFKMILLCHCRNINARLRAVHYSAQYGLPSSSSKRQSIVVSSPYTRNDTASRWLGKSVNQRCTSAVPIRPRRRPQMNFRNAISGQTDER
Experimental: as §1, §2

T1 sequence (G4V5G4 entry or part of it): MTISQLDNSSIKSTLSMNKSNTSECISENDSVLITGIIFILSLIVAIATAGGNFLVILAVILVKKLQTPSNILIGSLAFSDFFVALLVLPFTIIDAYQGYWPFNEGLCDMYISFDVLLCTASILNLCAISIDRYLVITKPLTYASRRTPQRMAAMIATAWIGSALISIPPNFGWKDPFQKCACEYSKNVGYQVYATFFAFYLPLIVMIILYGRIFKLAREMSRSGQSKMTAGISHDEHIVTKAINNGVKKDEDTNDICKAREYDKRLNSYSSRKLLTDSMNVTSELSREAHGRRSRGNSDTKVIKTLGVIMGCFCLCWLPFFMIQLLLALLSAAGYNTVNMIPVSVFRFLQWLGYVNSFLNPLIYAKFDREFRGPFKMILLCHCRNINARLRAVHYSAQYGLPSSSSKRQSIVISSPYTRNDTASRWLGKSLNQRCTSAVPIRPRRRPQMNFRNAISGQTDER

## COc1ccc2cc1Oc1ccc(cc1)C[C@H]1c3cc(c(OC)cc3CCN1C)Oc1c(OC)c(OC)cc3c1[C@H](C2)N(C)CC3 [tetrandrine]
Sm.5HTR [1]; Fig 7 quadrant
  potency (IC50) at Sm.5HTR: sub-μM potency
Hs.5HT7R; Fig 7 quadrant
  potency (IC50) at Hs.5HT7R: supra-μM potency
Adult schistosomes; 5-HT 100μM
  effect on 5-HT evoked increases in worm movement: lacked an inhibitory effect
Adult schistosomes; worms at rest
  effect on basal movement of adult worms: enhanced movements of isolated female worms
[2]
  IC50: ≤ 1 µM

## CN1CCC(=C2c3ccccc3C=Cc3ccccc32)CC1 [cyproheptadine]
Sm.5HTR [1]
  acute inhibition of 5-HT (10μM) response at Sm.5HTR: acutely inhibited
Sm.5HTR [3]; 10μM, 30 mins preincubation
  time to full reversal of inhibition after ligand removal: ≤ 1 h

## CC1CCN(CC[C@H]2CCCN2S(=O)(=O)c2cccc(O)c2)CC1 [SB269970]
Sm.5HTR [1]
  activity at Sm.5HTR: modest effects
Sm.5HTR [1]; listed as SB 269970
  activity at Sm.5HTR: completely lacked activity

## Cc1nc2n(c(=O)c1CCN1CCC(c3noc4cc(F)ccc34)CC1)CCCC2 [risperidone]
Sm.5HTR [1]
  acute inhibition of 5-HT (10μM) response at Sm.5HTR: Inhibition of 5-HT response
Sm.5HTR [3]
  inhibition of Sm.5HTR after antagonist wash-out: long-lasting inhibition

## CSc1ccc2c(c1)C(N1CCN(C)CC1)Cc1ccccc1S2 (stereo not drawn) [methiothepin]
Sm.5HTR [1]; drug 10μM, preincubation
  acute inhibition of 5-HT (10μM) response at Sm.5HTR: antagonism of 5-HT stimulated cAMP generation; also recorded: Inhibition of 5-HT response
Sm.5HTR [3]
  inhibition of Sm.5HTR after antagonist wash-out: long-lasting inhibition
Sm.5HTR [3]; titration, Fig 6E
  potency for Sm.5HTR inhibition after washout: most potent

## COc1cc2c(cc1OC)-c1cc3ccc(OC)c(OC)c3c[n+]1CC2 [palmatine]
Sm.5HTR [1]
  GPCR inhibition profile compared with rotundine: decreased potency and selectivity for Sm.5HTR

## CNCC[C@@H](Oc1ccccc1C)c1ccccc1 [atomoxetine]
Sm.5HTR [1]
  selectivity for Sm.5HTR over Hs.5HT7R: clear selectivity for Sm.5HTR; also recorded: preferential selectivity toward Sm.5HTR
Sm.5HTRL
  inhibition of 5-HT evoked cAMP generation through Sm.5HTRL: inhibited 5-HT evoked cAMP generation

## O=S(=O)(c1ccccc1)c1cnc2c(N3CCNCC3)cccc2c1 [SB742457]
Sm.5HTR [1]
  activity at Sm.5HTR: completely lacked activity; also recorded: modest effects
Hs.5HT7R; Fig 4
  inhibition of Hs.5HT7R: potent inhibitors

## CCN1CCCC1CNC(=O)c1cc(S(=O)(=O)CC)c(N)cc1OC (stereo not drawn) [amisulpride]
Sm.5HTR [1]
  activity at Sm.5HTR: modest effects

## COc1ccc2cc3[n+](cc2c1OC)CCc1cc2c(cc1-3)OCO2 [berberine]
Sm.5HTR [1]
  GPCR inhibition profile compared with rotundine: decreased potency and selectivity for Sm.5HTR

Source: paper PMC4871480, “A Miniaturized Screen of a Schistosoma mansoni Serotonergic G Protein-Coupled Receptor Identifies Novel Classes of Parasite-Selective Inhibitors” (PLoS Pathogens, 2016)
